Source: patent publication US8124364B2, “Biotin derivatives” (Glycorex Transplantation AB, priority 2000, dated 2012)

How the values were obtained:
Mitra Avidin-Agarose = molecular target: T1, Mitra Avidin-Agarose (Gallus gallus, UniProt P02701); test: Adsorption of biotin-trimer to avidin-agarose column (conditioning), concentration in recirculated fluid by ELISA; assay type: binding; conditions: 2 mL Mitra Avidin-Agarose; 5 mL of 1 mg/mL biotin-trimer in PBS recirculated at 1 mL/min for 20 minutes; end of recirculation
T1 construct: Mitra
Method: Two mL of Mitra Avidin-Agarose was packed into a column housing and was washed with >10 mL of PBS at a flow rate of 1 mL/min (1.6 cm/min). Five mL of a 1 mg/mL solution of biotin-trimer in PBS was recirculated through the avidin-column at 1 mL/min for 20 minutes. At end of the recirculation, a sample (0.5 mL) was drawn from the recirculated solution and analysed by an ELISA technique developed by Mitra Medical Technology AB. The biotin-avidin-agarose-column was washed with phosphate buffer at 1 mL/min for 20 minutes. By determining the concentration of biotin-trimer in the recirculated fluid, the amount of adsorbed biotin-trimer was estimated to about 1.9 mg i.e. 0.95 mg/mL of gel at the end of recirculation.
Biotin-trimer was adsorbed to 2 mL of Mitra Avidin-Agarose. […] If one biotin-trimer is bound per available binding site this would correspond to […] biotin-trimer/mL. As about 0.95 mg biotin-trimer was bound per mL avidin-agarose it can be assumed that the adsorbent was saturated with biotin-trimer.

avidin = avidin (Gallus gallus, UniProt P02701); test: Assessment of avidin adsorption on a column conditioned with biotin trimer, avidin by ELISA; assay type: binding
Method: An avidin-agarose column that was conditioned with a biotin trimer (i.e. FIG. 4, compound #2) was primed with phosphate buffer. Following this, 20 mL avidin-solution with 1 mg avidin/mL in PBS was recirculated through a biotin-avidin-agarose-column at 1.0 mL/min (1.6 cm/min). Three volumes of the avidin solution (3×20 mL) were processed and aliquots were drawn from the reservoir before start of the recirculation, then after 2 main and in 5 min intervals. The aliquots were analyzed for the quantity of avidin in them using an ELISA technique developed by Mitra Medical Technology AB. The dotted line represented the theoretically expected if no saturation effect has occurred. The column is saturated after about 40 min (2 vol.) when about 16 mg (80%) of, avidin has been bound. Signs of saturation was seen after about 20 min (1.0 vol.) when the experimental curve begin to deviate from the theoretical curve which occurred when about 10 mg of Avidin had been bound to the column.
After a 40 min recirculation, about 16 mg of avidin was bound, i.e. 8 mg/mL biotin-avidin-agarose. This corresponds to a 1:1 molar ration between the avidin coupled to agarose and the avidin adsorbed to the biotin-trimer. Initial saturation effects were seen after about one recirculated volume. After 2 volumes processed no further avidin was bound.

Chain of avidin (P02701 25-152): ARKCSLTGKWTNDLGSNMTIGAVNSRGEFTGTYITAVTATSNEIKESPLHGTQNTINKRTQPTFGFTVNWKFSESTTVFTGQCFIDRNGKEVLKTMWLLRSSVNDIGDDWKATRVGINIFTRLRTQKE
T1 sequence (P02701 25-152): as above

O=C(CCCCC1OCC2NC(=O)NC21)NCCOCCOCCNC(=O)c1cc(C(=O)NCCOCCOCCNC(=O)CCCCC2OCC3NC(=O)NC32)cc(C(=O)NCCOCCOCCNC(=O)CCCCC2OCC3NC(=O)NC32)c1 (stereo not drawn) [biotin-trimer]
amount of adsorbed biotin-trimer (Mitra Avidin-Agarose): about 1.9 mg | time until signs of saturation (avidin; 1.0 vol.): about 20 min | avidin bound at saturation of the column (avidin; 20 mL of 1 mg avidin/mL in PBS recirculated at 1.0 mL/min, after about 40 min (2 vol.)): about 16 mg | avidin bound when signs of saturation were seen (avidin; after about 20 min (1.0 vol.), experimental curve begins to deviate from theoretical curve): about 10 mg | share of avidin bound at saturation (avidin; after about 40 min (2 vol.)): ~80% | time until the column is saturated (avidin; recirculation at 1.0 mL/min, 2 vol.): about 40 min
